Columns and labels:
[1] = test system: CaCo-2 cells; conditions: average for Enn A, A1, B and B1, ref Meca et al., 2012; cited from earlier work
[2] = ref Manyes et al., 2014, cited from earlier work
[3] = type: in vivo, CB-17 scid/scid mice; conditions: KB-3-1 xenograft
[4] = type: in vivo, SCID mice; conditions: 5 mg/kg i.p.
[5] = Evaluation of toxicological effects: body weight, behavior, histology; type: in vivo, SCID mice; conditions: 5 mg/kg i.p., short-term and 9-day schedules
[6] = 5 mg/kg b.w. i.p. daily, 9 days, mean ± SD (n = 4)

CC[C@H](C)[C@H]1C(=O)O[C@H](C(C)C)C(=O)N(C)[C@@H]([C@@H](C)CC)C(=O)O[C@H](C(C)C)C(=O)N(C)[C@@H](C(C)C)C(=O)O[C@H](C(C)C)C(=O)N1C [Enn A1]
Apparent mean bioavailability [1]: 80%

CC[C@H](C)[C@H]1C(=O)O[C@H](C(C)C)C(=O)N(C)[C@@H]([C@@H](C)CC)C(=O)O[C@H](C(C)C)C(=O)N(C)[C@@H]([C@@H](C)CC)C(=O)O[C@H](C(C)C)C(=O)N1C [Enn A]
Apparent mean bioavailability [1]: 80% | Detection in kidneys ([2]; Enn A-fed Wistar rats): no Enn A was detected in kidneys | Adverse effects (histological analyses, biochemical blood parameters) ([2]; repeated dose 20.91 mg Enn A/kg b.w./day, 28 days, feed): no adverse effects

CC(C)[C@H]1C(=O)O[C@H](C(C)C)C(=O)N(C)[C@@H](C(C)C)C(=O)O[C@H](C(C)C)C(=O)N(C)[C@@H](C(C)C)C(=O)O[C@H](C(C)C)C(=O)N1C [Enn B, Enniatin B]
Concentration in serum [3, 6]: 5.4 ± 0.2 µg/kg | Concentration in tumor [3, 6]: 2.8 ± 0.8 µg/kg | Degradation products (metabolites) in tumor tissues ([3]; 9-day treatment, 5 mg/kg i.p.): no degradation products could be found | Concentration in liver, quantified with Enn B calibration curve ([4]; 2-days Enn B-treated SCID mice): 2.9 ± 0.6 µg/kg | Metabolites in serum, brain, muscle and kidney ([4]; short-term treatment): no metabolites were found | Apparent signs of toxicity (food and fluid consumption, fatigue, body weight alterations) [5]: None of the treatment schedules showed apparent signs of toxicity | Apparent mean bioavailability [1]: 80%

CC(C)C1NC(=O)C(C(C)C)OC(=O)C(C(C)C)N(C)C(=O)C(C(C)C)OC(=O)C(C(C)C)N(C)C(=O)C(C(C)C)OC1=O (stereo not shown) [Mono-demethylated-Enn B]
Concentration in colon, quantified with Enn B calibration curve ([4]; 2-days Enn B-treated SCID mice): 0.6 ± 0.09 µg/kg | Concentration in liver, quantified with Enn B calibration curve ([4]; 2-days Enn B-treated SCID mice): 0.7 ± 0.1 µg/kg

Source: article PMC5850989 (Toxicology letters, 2016)
